From publication PMC12367851, “In vitro CB1 receptor activity of halogenated indazole synthetic cannabinoid receptor agonists” (Archives of Toxicology, 2025)

Biological target: human CB1 receptor (Homo sapiens, UniProt P21554)
Assay: AequoScreen CB1 assay (intracellular Ca2+ release, CHO-K1 cells, apoaequorin/Gα16)
Settings: for Emax: CHO-K1, read-out: Efficacy (% of JWH-018) Emax; for Efficacy (Emax) Mean Diff: Brown-Forsythe and Welch ANOVA; for fold difference of each other (potency): brominated SCRAs with pent-4-enyl, butyl and pentyl tails
[1] = Compound 1 vs Compound 2 = MDMB-5’Cl-BUTINACA
[2] = Compound 1 vs Compound 2 = MDMB-5’F-BUTINACA
[3] = Compound 1 vs Compound 2 = MDMB-BUTINACA
[4] = Compound 1 vs Compound 2 = MDMB-INACA
[5] = Compound 1 vs Compound 2 = MMB-5’Cl-BUTINACA

Sequence of human CB1 receptor (P21554 whole entry): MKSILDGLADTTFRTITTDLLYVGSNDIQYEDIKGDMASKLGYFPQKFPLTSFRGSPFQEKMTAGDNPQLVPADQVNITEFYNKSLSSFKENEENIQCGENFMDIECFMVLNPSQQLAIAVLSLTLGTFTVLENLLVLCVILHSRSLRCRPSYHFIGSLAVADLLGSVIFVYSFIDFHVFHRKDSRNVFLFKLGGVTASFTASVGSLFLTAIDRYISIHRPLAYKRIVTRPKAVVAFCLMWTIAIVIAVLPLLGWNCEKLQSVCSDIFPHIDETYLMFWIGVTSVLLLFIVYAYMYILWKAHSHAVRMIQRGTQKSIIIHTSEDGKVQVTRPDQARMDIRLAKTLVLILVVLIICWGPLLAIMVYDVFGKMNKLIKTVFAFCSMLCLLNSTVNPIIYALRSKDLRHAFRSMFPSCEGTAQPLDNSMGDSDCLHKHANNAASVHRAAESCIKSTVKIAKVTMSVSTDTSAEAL

C=CCCCn1nc(C(=O)NC(C(=O)OC)C(C)(C)C)c2cc(Br)ccc21 (stereo not shown) [MDMB-4en-5′Br-PINACA, methyl 2-{[5-bromo-1-(pent-4-en-1-yl)−1H-indazole-3-carbonyl]amino}−3,3-dimethylbutanoate]
EC50: 44.6 nM
Emax: 120%
Efficacy (Emax) Mean Diff (Compound 1 vs Compound 2 = MDMB-4en-PINACA): 11.19
fold less potent than MDMB-4en-PINACA (EC50 ratio vs non-halogenated analog MDMB-4en-PINACA): 2.5 fold
fold difference of each other (potency): ≤ 1.4 fold

C=CCCCn1nc(C(=O)NC(C(=O)OC)C(C)(C)C)c2ccccc21 (stereo not shown) [MDMB-4en-PINACA, reference compound]
EC50: 17.9 nM
Emax: 109%

CCCCn1nc(C(=O)NC(C(=O)OC)C(C)(C)C)c2cc(Br)ccc21 (stereo not shown) [MDMB-5′Br-BUTINACA]
EC50: 42.4 nM
Emax: 114%
Efficacy (Emax) Mean Diff (Compound 1 vs Compound 2 = MDMB-4en-5’Br-PINACA (also printed MDMB-5’Br-4en-PINACA)): -6.38
Efficacy (Emax) Mean Diff [1]: 3.79
Efficacy (Emax) Mean Diff [2]: 2.52
Efficacy (Emax) Mean Diff [3]: -7.53
fold less potent than MDMB-BUTINACA (EC50 ratio vs non-halogenated analog MDMB-BUTINACA): 4.8 fold
fold difference of each other (potency): ≤ 1.4 fold

COC(=O)C(NC(=O)c1n[nH]c2ccc(Br)cc12)C(C)(C)C (stereo not shown) [MDMB-5′Br-INACA, methyl 2-[5-bromo-1H-indazole-3-carboxamido]−3,3-dimethylbutanoate]
EC50: 2200 nM
Emax: 110%
Efficacy (Emax) Mean Diff [4]: -2.31
fold weaker in potency than JWH-018 (EC50 ratio vs JWH-018): 100 fold
fold more potent than MDMB-INACA (EC50 ratio, tail-less SCRAs): 1.7 fold

CCCCn1nc(C(=O)NC(C(=O)OC)C(C)(C)C)c2cc(Cl)ccc21 (stereo not shown) [MDMB-5′Cl-BUTINACA]
EC50: 10.6 nM
Emax: 110%
Efficacy (Emax) Mean Diff [3]: -11.32

CCCCn1nc(C(=O)NC(C(=O)OC)C(C)(C)C)c2cc(F)ccc21 (stereo not shown) [MDMB-5′F-BUTINACA]
EC50: 5.75 nM
Emax: 111%
Efficacy (Emax) Mean Diff [1]: 1.27
Efficacy (Emax) Mean Diff [3]: -10.05

COC(=O)C(NC(=O)c1n[nH]c2ccc(C)cc12)C(C)(C)C (stereo not shown) [MDMB-5′Me-INACA, methyl 3,3-dimethyl-2-[(5-methyl-1H-indazole-3-carbonyl)amino]butanoate]
EC50: 1370 nM
Emax: 113%
Efficacy (Emax) Mean Diff (Compound 1 vs Compound 2 = MDMB-5’Br-INACA): 3.46
Efficacy (Emax) Mean Diff [4]: 1.15
fold more potent than MDMB-5′Br-INACA (EC50 ratio, tail-less SCRAs): 1.6 fold
fold more potent than MDMB-INACA (EC50 ratio, tail-less SCRAs): 2.7 fold

CCCCn1nc(C(=O)NC(C(=O)OC)C(C)(C)C)c2ccccc21 (stereo not shown) [MDMB-BUTINACA, reference compound]
EC50: 8.9 nM
Emax: 121%

COC(=O)C(NC(=O)c1n[nH]c2ccccc12)C(C)(C)C (stereo not shown) [MDMB-INACA, reference compound]
EC50: 3690 nM
Emax: 112%

CCCCn1nc(C(=O)NC(C(=O)OC)C(C)C)c2cc(Br)ccc21 (stereo not shown) [MMB-5′Br-BUTINACA]
EC50: 259 nM
Emax: 105%
Efficacy (Emax) Mean Diff (Compound 1 vs Compound 2 = ADB-5’Br-BUTINACA): -4.38
Efficacy (Emax) Mean Diff [5]: -3.81
Efficacy (Emax) Mean Diff (Compound 1 vs Compound 2 = MMB-5’F-BUTINACA): -1.32

CCCCn1nc(C(=O)NC(C(=O)OC)C(C)C)c2cc(Cl)ccc21 (stereo not shown) [MMB-5′Cl-BUTINACA]
EC50: 148 nM
Emax: 109%
Efficacy (Emax) Mean Diff (Compound 1 vs Compound 2 = ADB-5’Cl-BUTINACA): -3.40
Efficacy (Emax) Mean Diff [1]: -0.60

CCCCn1nc(C(=O)NC(C(=O)OC)C(C)C)c2cc(F)ccc21 (stereo not shown) [MMB-5′F-BUTINACA]
EC50: 26.4 nM
Emax: 107%
Efficacy (Emax) Mean Diff (Compound 1 vs Compound 2 = ADB-5’F-BUTINACA): -6.25
Efficacy (Emax) Mean Diff [2]: -4.36
Efficacy (Emax) Mean Diff [5]: -2.49

CCCCCCCCCCn1nc(C(=O)NC(C(N)=O)C(C)(C)C)c2cc(Br)ccc21 (stereo not shown) [N-(1-amino-3,3-dimethyl-1-oxobutan-2-yl)−5-bromo-1-decyl-1H-indazole-3-carboxamide]
Potency (EC50, nM) (three-parameter logistic fit, n ≥ 3, triplicate, racemic standards): not even reaching saturation
